As usually defined, the IC50 is the concentration that inhibits the measured activity by half.

Structures can show the parent of a compound that is named as a salt.

IC50 data for 15 compounds are collected here from US5773646A, “Meta-substituted phenylene derivatives” (G. D. Searle & Co., priority 1997, dated 1998).

For assay [1], the target named is T1, Human fibrinogen receptor (αIIb β3) (Homo sapiens, UniProt P05106+P08514).
T1 construct: Human fibrinogen receptor (αIIb β3) was purified from outdated platelets; from tissue; host or cells: outdated human platelets
Description: Purified IIb/IIIa receptor assay (solid phase receptor assay, biotinylated vitronectin competition). The following applies: inhibition of 50% of the maximum binding of biotinylated vitronectin; 1 nM labeled ligand, 2 hours, room temperature, highest concentration of test compound 1.0×10^-4 M. The text has this: PURIFIED IIb/IIIa RECEPTOR ASSAY Human fibrinogen receptor (αIIb β3) was purified from outdated platelets. (Pytela, R., Pierschbacher, […]., Suzuki, S., and […] acid adhesion receptors", Methods in Enzymology 144(1987):475-489.) Human vitronectin was purified from fresh frozen plasma as described in Yatohgo, T., Izumi, M., Kashiwagi, H., and Hayashi, M., "Novel purification of vitronectin from human plasma by heparin affinity chromatography," Cell Structure and Function 13(1988):281-292. Biotinylated human vitronectin was prepared by coupling NHS-biotin from Pierce Chemical Company (Rockford, Ill.) to purified vitronectin as previously described. (Charo, […]., Phillips, D. R., Hsu, M. A., Scarborough, R. M., "Inhibition of fibrinogen binding to GP IIb/IIIa by a GP IIIa peptide", J. Biol. Chem. 266(3)(1991):1415-1421.) Assay buffer, OPD substrate tablets, and RIA grade BSA were obtained from Sigma (St. Louis, Mo.). Anti-biotin antibody was obtained from Calbiochem (La Jolla, Calif.). Linbro microtiter plates were obtained from Flow Labs (McLean, Va.). ADP reagent was obtained from Sigma (St. Louis, Mo.). Solid Phase Receptor Assays This assay is essentially the same reported in […]., Bader, R., Byers-Ward, […]., Plow, E. F. and Ruggeri, Z. M., "Increased surface expression of the membrane glycoprotein IIb/IIIa complex induced by platelet activation: Relationships to the binding of fibrinogen and platelet aggregation", Blood 70(1987):475-483. The purified human fibrinogen receptor (αIIb β3) was diluted from stock solutions to 1.0 μg/mL in Tris-buffered saline containing 1.0 mM Ca^++, Mg^++, and Mn^++, pH 7.4 (TBS^+++). The diluted receptor was immediately transferred to Linbro microtiter plates at 100 μL/well (100 ng receptor/well). The plates were sealed and incubated overnight at 4° C. to allow the receptor to bind to the wells. All remaining steps were at room temperature. The assay plates were emptied and 200 μL of 1% RIA grade BSA in TBS^+++ (TBS^+++ /BSA) were added to block exposed plastic surfaces. Following a 2 hour incubation, the assay plates were washed with TBS^+++ using a 96 well plate washer. Logarithmic serial dilution of the test compound and controls were made starting at a stock concentration of 2 mM and using 2 nM biotinylated vitronectin in TBS^+++ /BSA as the diluent. This premixing of labeled ligand with test (or control) ligand, and subsequent transfer of 50 μL aliquots to the assay plate was carried out with a CETUS Propette robot; the final concentration of the labeled ligand was 1 nM and the highest concentration of test compound was 1.0×10^-4 M. The competition occurred for two hours after which all wells were washed with a plate washer as before. Affinity purified horseradish peroxidase labeled goat antibiotin antibody was diluted 1:3000 in TBS^+++ /BSA and 125 μL were added to each well. After 30 minutes, the plates were washed and incubated with […]/H2 O2 substrate in 100 mM/L citrate buffer, pH 5.0. The plate was read with a microtiter plate reader at a wavelength of 450 nm and when the maximum-binding control wells reached an absorbance of about 1.0, the final A450 were recorded for analysis. The data were analyzed using a macro written for use with the EXCELTM spreadsheet program. The mean, standard deviation, and %CV were determined for duplicate concentrations. The mean A450 values were normalized to the mean of four maximum-binding controls (no competitor added)(B-MAX). The normalized values were subjected to a four parameter curve fit algorithm, [Robard et al., Int.

The target of assay [2] is T2, Human vitronectin receptor (αv β3) (Homo sapiens, UniProt P05106+P06756).
T2 construct: Human vitronectin receptor(αv β3) was purified from human placenta; from tissue; host or cells: human placenta
The experiment in a line: Vitronectin adhesion assay (solid phase receptor assay, biotinylated vitronectin competition). The class given is binding. The conditions noted are these: inhibition of 50% of the maximum binding of biotinylated vitronectin; 1 nM labeled ligand, 2 hours, room temperature, highest concentration of test compound 1.0×10^-4 M; read-out: AvB3 IC50. As for the experimental part: VITRONECTIN ADHESION ASSAY Human vitronectin receptor(αv β3) was purified from human placenta as previously described [Pytela et al., Methods in Enzymology, 144:475-489 (1987)). Human vitronectin was purified from fresh frozen plasma as previously described [Yatohgo et al., Cell Structure and Function, 13:281-292 (1988)]. Biotinylated human vitronectin was prepared by coupling NHS-biotin from Pierce Chemical Company (Rockford, Ill.) to purified vitronectin as previously described [Charo et al., J. Biol. Chem., 266(3):1415-1421 (1991)]. Assay buffer, OPD substrate tablets, and RIA grade BSA were obtained from Sigma (St. Louis, Mo.). Anti-biotin antibody was obtained from Calbiochem (La Jolla, Calif.). Linbro microtiter plates were obtained from Flow Labs (McLean, Va.). ADP reagent was obtained from Sigma (St. Louis, Mo.). Solid Phase Receptor Assays This assay was essentially the same as previously reported [Niiya et al., Blood, 70:475-483 (1987)]. The purified human vitronectin receptor (αv β3) was diluted from stock solutions to 1.0 μg/mL in Tris-buffered saline containing 1.0 mM Ca^++, Mg^++, and Mn^++, pH 7.4 (TBS^+++). The diluted receptor was immediately transferred to Linbro microtiter plates at 100 μL/well (100 ng receptor/well). The plates were sealed and incubated overnight at 4° C. to allow the receptor to bind to the wells. All remaining steps were at room temperature. The assay plates were emptied and 200 μL of 1% RIA grade BSA in TBS^+++ (TBS^+++ /BSA) were added to block exposed plastic surfaces. Following a 2 hour incubation, the assay plates were washed with TBS^+++ using a 96 well plate washer. Logarithmic serial dilution of the test compound and controls were made starting at a stock concentration of 2 mM and using 2 nM biotinylated vitronectin in TBS^+++ /BSA as the diluent. This premixing of labeled ligand with test (or control) ligand, and subsequent transfer of 50 μL aliquots to the assay plate was carried out with a CETUS Propette robot; the final concentration of the labeled ligand was 1 nM and the highest concentration of test compound was 1.0×10^-4 M. The competition occurred for two hours after which all wells were washed with a plate washer as before. Affinity purified horseradish peroxidase labeled goat antibiotin antibody was diluted 1:3000 in TBS^+++ /BSA and 125 μL were added to each well. After 30 minutes, the plates were washed and incubated with OPD/H2 O2 substrate in 100 mM/L Citrate buffer, pH 5.0. The plate was read with a microtiter plate reader at a wavelength of 450 nm and when the maximum-binding control wells reached an absorbance of about 1.0, the final A450 were recorded for analysis. The data were analyzed using a macro written for use with the EXCEL™ spreadsheet program. The mean, standard deviation, and %CV were determined for duplicate concentrations. The mean A450 values were normalized to the mean of four maximum-binding controls (no competitor added)(B-MAX). The normalized values were subjected to a four parameter curve fit algorithm [Rodbard et al., Int.

On to `COc1ccccc1C(CC(=O)O)c1cccc(CNC(=O)c2cccc(NC(=N)N)c2)c1` (racemic) [Example 63, (±) -[3-[[[[3-[(aminoiminomethyl)amino]phenyl]carbonyl]amino]methyl]phenyl]-2-methoxybenzene propanoic acid, trifluoroacetate salt hydrate], for which the values for the IC50 in assay [1] and in assay [2] were 0.454 µM and 0.0235 µM, respectively.

In the case of `CC(CC(=O)O)c1cccc(CNC(=O)c2cccc(NC(N)=NC#N)c2)c1` (racemic) [Example 64, (±) 3[[[[3-[[amino(cyanoimino)methyl]amino]phenyl]carbonyl]amino]methyl]-β-methylbenzenepropanoic acid], the figures for the IC50 in assay [1] and in assay [2] were 26.4 µM and 0.199 µM, respectively.

In the case of `O=C(O)CCc1cccc(CNC(=O)c2cccc(NC(=O)NCc3ccccc3)c2)c1` [Example 31, 3-[[[[3-[[[(phenylmethyl)amino]carbonyl]amino]phenyl]carbonyl]amino]methyl]benzenepropanoic acid], the IC50 in assay [1] was 5.36 µM; in assay [2] it was 3.57 µM.

Take `CNC(=NC#N)Nc1cccc(C(=O)NCc2cccc(C(CC(=O)O)c3ccccc3)c2)c1` (stereo not drawn) [Example 55, 3-[[[[3-[[(cyanoimino)(methylamino)methyl]amino]phenyl]carbonyl]amino]methyl]-β-phenylbenzenepropanoic acid]: the IC50 in assay [1] is 13.4 µM; in assay [2], 0.108 µM.

As for `CC(CC(=O)O)c1cccc(CNC(=O)c2cccc(Nc3nc4ccccc4[nH]3)c2)c1` (racemic) [Example 69, (±) 3-[[[[3-[(1H-benzimidazol-2-yl)amino]phenyl]carbonyl]amino]methyl]-β-methyl benzenepropanoic acid], the values for the IC50 in assay [1] and in assay [2] were 10.1 µM and 0.425 µM, respectively.

Consider `N=C(N)Nc1cccc(/C=C\c2cccc(C(CC(=O)O)c3ccccc3)c2)c1` (stereo not drawn) [Example 76, 3-[2Z-[3-[(aminoiminomethyl)amino]phenyl]ethenyl]-β-phenylbenzenepropanoic Acid, Bis(trifluoroacetate) Salt], for which the IC50 stood at 1.77 µM in assay [1] and 0.087 µM in assay [2].

Turning to `NC(=S)Nc1cccc(S(=O)(=O)Nc2cccc(C(CC(=O)O)c3ccccc3)c2)c1` (stereo not drawn) [Example 10, 3-[[[3-[(aminothioxomethyl)amino]phenyl]sulfonyl]amino]-β-phenylbenzenepropanoic acid], the IC50 is 5.54 µM in assay [1] and 0.144 µM in assay [2].

For `CC(C)C(CC(=O)O)c1cccc(CNC(=O)c2cccc(NC(=N)N)c2)c1` (stereo not drawn) [Example 43, 3-[[[[3-[(aminoiminomethyl)amino]phenyl]carbonyl]amino]methyl]-β-(1-methylethyl) benzenepropanoic acid, trifluoroacetate salt], the IC50 was 0.798 µM in assay [1] and 0.00718 µM in assay [2].

`CC(CC(=O)O)c1cccc(CNC(=O)c2cccc(NC3=NC(=O)CN3)c2)c1` (racemic) [Example 67, (±) 3-[[[[3-[(4,5-dihydro-4-oxo-1H-imidazol-2-yl)amino]phenyl]carbonyl]amino]methyl]-β-methylbenzenepropanoic acid]: the IC50 in assay [1] turned out to be 12.9 µM; in assay [2] it was 0.122 µM.

Turning to `N=C(N)Nc1cccc(SCc2cccc(C(CC(=O)O)c3ccccc3)c2)c1` (stereo not drawn) [Example 87, 3-[[3-[(aminoiminomethyl)amino]phenylthio]methyl]-β-phenylbenzenepropanoic Acid, Trifluoroacetate Salt], the IC50 in assay [1] worked out at 3.3 µM; in assay [2] it was 0.0512 µM.

As to `O=C(O)COc1cccc(C(=O)/C=C/c2cccc(NC3=NCCN3)c2)c1` [Example 72, 2-[3-[3-[3-[(4,5-dihydro-1H-imidazol-2-yl)amino]phenyl]-1-oxo-2-propenyl]phenoxy]acetic acid, trifluoroacetate salt hydrate], the IC50 in assay [1] came to 8.1 µM; in assay [2], 0.168 µM.

For the compound `COc1ccc2[nH]c(Nc3cccc(C(=O)NCc4cccc(C(C)CC(=O)O)c4)c3)nc2c1` (racemic) [Example 70, (±) 3-[[[[3-[(5-methoxy-1H-benzimidazol-2-yl)amino]phenyl]carbonyl]amino]methyl]-β-methyl benzenepropanoic acid, trifluoroacetate salt], the values for the IC50 in assay [1] and in assay [2] were 7.66 µM and 1.71 µM, respectively.

As for `O=C(O)CC(c1cc(F)cc(F)c1)c1cccc(CNC(=O)c2cccc(NC3=NCCCN3)c2)c1` (racemic) [Example 62, (±) 3,5-difluoro-β-[3-[[[[3-[(1,4,5,6-tetrahydropyrimidin-2-yl)amino]phenyl]carbonyl]amino]methyl]phenyl]benzenepropanoic acid, trifluoroacetate salt monohydrate], the IC50 in assay [1] worked out at 1.9 µM; in assay [2], 0.00087 µM.

As to “3-[[[[3-[(aminothioxomethyl)amino]phenyl]carbonyl]amino]methyl]benzenepropanoic acid [Example 25]”, the IC50 in assay [1] came out at 26.9 µM; in assay [2] it was 7.46 µM.

With `N=C(N)Nc1cccc(C(=O)NCc2cccc(C(CC(=O)O)c3cc(Cl)cc(Cl)c3)c2)c1` (stereo not drawn) [Example 54], the values for the IC50 in assay [1] and in assay [2] were 0.145 µM and 0.0198 µM, respectively.
